Activity calls are given as the source filed them. The rule behind the calls is not given here.
Experiments:
Acinetobacter baumannii [1] = experiment: Antibacterial activity against multi drug resistant Acinetobacter baumannii CCPM(A)-1100708 assessed as reduction in microbial growth after 16 to 18 hrs by microbroth dilution method; assay type: functional; settings: time 16-18 hrs
Acinetobacter baumannii [2] = experiment: Antibacterial activity against multi drug resistant Acinetobacter baumannii CCPM(A)-100903 assessed as reduction in microbial growth after 16 to 18 hrs by microbroth dilution method; assay type: functional; settings: time 16-18 hrs
Escherichia coli [3] = experiment: Antibacterial activity against Escherichia coli ATCC 25922 assessed as reduction in microbial growth after 16 to 18 hrs by microbroth dilution method; assay type: functional; settings: time 16-18 hrs
Escherichia coli [4] = experiment: Antibacterial activity against Escherichia coli CCPM(A)-0715118 assessed as reduction in microbial growth after 16 to 18 hrs by microbroth dilution method; assay type: functional; settings: time 16-18 hrs
Klebsiella pneumoniae [5] = experiment: Antibacterial activity against Klebsiella pneumoniae ATCC 700603 assessed as reduction in microbial growth after 16 to 18 hrs by microbroth dilution method; assay type: functional; settings: time 16-18 hrs
Klebsiella pneumoniae [6] = experiment: Antibacterial activity against ESBL-producing Klebsiella pneumoniae CCPM(A)-081514 assessed as reduction in microbial growth after 16 to 18 hrs by microbroth dilution method; assay type: functional; settings: time 16-18 hrs
[7] = Inhibition of Escherichia coli C-terminal hexahistidine tagged DHFR incubated for 5 mins in presence of NADPH by measuring oxidation of NADPH to NADP+
Escherichia coli [8] = experiment: Binding affinity to Escherichia coli C-terminal hexahistidine tagged DHFR assessed as change in enthalpy at 0.2 mM by isothermal titration calorimetry method
Escherichia coli [9] = experiment: Binding affinity to Escherichia coli C-terminal hexahistidine tagged DHFR assessed as change in entropy at 0.2 mM by isothermal titration calorimetry method
Acinetobacter baumannii [10] = experiment: Antibacterial activity against Acinetobacter baumannii CCPM(A)-100947 assessed as reduction in microbial growth after 16 to 18 hrs by microbroth dilution method; assay type: functional; settings: time 16-18 hrs
[11] = Binding affinity to Escherichia coli C-terminal hexahistidine tagged DHFR assessed as dissociation constant by isothermal titration calorimetry method
Klebsiella pneumoniae [12] = experiment: Antibacterial activity against ESBL-producing Klebsiella pneumoniae ATCC 700603 assessed as reduction in microbial growth after 16 to 18 hrs by microbroth dilution method; assay type: functional; settings: time 16-18 hrs
Enterococcus faecium = experiment: Antibacterial activity against vancomycin-resistant Enterococcus faecium ATCC 51559 assessed as reduction in microbial growth after 16 to 18 hrs by microbroth dilution method; assay type: functional; settings: time 16-18 hrs
Escherichia coli [13] = experiment: Antibacterial activity against Escherichia coli ATCC 25922 assessed as blockage of folate pathway after 16 to 18 hrs in presence of thymine by microbroth dilution method; assay type: functional; settings: time 16-18 hrs
Acinetobacter baumannii [14] = experiment: Antibacterial activity against multi drug resistant Acinetobacter baumannii CCPM(A)-100902 assessed as reduction in microbial growth after 16 to 18 hrs by microbroth dilution method; assay type: functional; settings: time 16-18 hrs
Acinetobacter baumannii [15] = experiment: Antibacterial activity against Acinetobacter baumannii CCPM(A)-100946 assessed as reduction in microbial growth after 16 to 18 hrs by microbroth dilution method; assay type: functional; settings: time 16-18 hrs
Klebsiella pneumoniae [16] = experiment: Antibacterial activity against Klebsiella pneumoniae CCPM(A)-081018 assessed as reduction in microbial growth after 16 to 18 hrs by microbroth dilution method; assay type: functional; settings: time 16-18 hrs
Escherichia coli [17] = experiment: Inhibition of Escherichia coli C-terminal hexahistidine tagged DHFR at 5 uM incubated for 5 mins in presence of NADPH by measuring oxidation of NADPH to NADP+
[18] = molecular target: Thymidylate synthase (Escherichia coli K-12) (UniProt P0A884); experiment: Binding affinity to Escherichia coli […] hexahistidine-tagged TS at 20 uM by biolayer interferometry assay
Staphylococcus aureus [19] = experiment: Antibacterial activity against Staphylococcus aureus ATCC 29213 assessed as reduction in microbial growth after 16 to 18 hrs by microbroth dilution method; assay type: functional; settings: time 16-18 hrs
Klebsiella pneumoniae [20] = experiment: Antibacterial activity against ESBL-producing Klebsiella pneumoniae CCPM(A)-081568 assessed as reduction in microbial growth after 16 to 18 hrs by microbroth dilution method; assay type: functional; settings: time 16-18 hrs
Escherichia coli [21] = experiment: Antibacterial activity against ESBL-producing Escherichia coli CCPM(A)-0715117 assessed as reduction in microbial growth after 16 to 18 hrs by microbroth dilution method; assay type: functional; settings: time 16-18 hrs
Escherichia coli [22] = experiment: Antibacterial activity against Escherichia coli ATCC 25922 overexpressing DHFR assessed as reduction in microbial growth after 16 to 18 hrs by microbroth dilution method; assay type: functional; settings: time 16-18 hrs
Escherichia coli [23] = experiment: Antibacterial activity against ESBL-producing Escherichia coli CCPM(A)-071030 assessed as reduction in microbial growth after 16 to 18 hrs by microbroth dilution method; assay type: functional; settings: time 16-18 hrs
Escherichia coli [24] = experiment: Antibacterial activity against ESBL-producing Escherichia coli CCPM(A)-0715142 assessed as reduction in microbial growth after 16 to 18 hrs by microbroth dilution method; assay type: functional; settings: time 16-18 hrs
Thymidylate synthase = Thymidylate synthase (Escherichia coli K-12, UniProt P0A884); experiment: Inhibition of Escherichia coli N-terminal hexahstidine-tagged TS by steady-state kinetic analysis
Escherichia coli [25] = experiment: Antibacterial activity against Escherichia coli ATCC 25922 overexpressing DHFR assessed as fold increase in MIC after 16 to 18 hrs by microbroth dilution method; assay type: functional; settings: time 16-18 hrs
[26] = molecular target: Thymidylate synthase (Escherichia coli K-12) (UniProt P0A884); experiment: Inhibition of Escherichia coli N-terminal hexahstidine-tagged TS at 500 uM by steady-state kinetic analysis
Acinetobacter baumannii [27] = experiment: Antibacterial activity against Acinetobacter baumannii ATCC 19606 assessed as reduction in microbial growth after 16 to 18 hrs by microbroth dilution method; assay type: functional; settings: time 16-18 hrs
Escherichia coli [28] = experiment: Binding affinity to Escherichia coli C-terminal hexahistidine tagged DHFR assessed as change in gibbs free energy at 0.2 mM by isothermal titration calorimetry method
Escherichia coli [29] = experiment: Antibacterial activity against Escherichia coli ATCC 25922 assessed as blockage of folate pathway after 16 to 18 hrs in presence of thymine by measuring fold increase in MIC by microbroth dilution method; assay type: functional; settings: time 16-18 hrs
Staphylococcus aureus [30] = experiment: Antibacterial activity against methicillin-resistant Staphylococcus aureus ATCC 43300 assessed as reduction in microbial growth after 16 to 18 hrs by microbroth dilution method; assay type: functional; settings: time 16-18 hrs
[31] = molecular target: Thymidylate synthase (Escherichia coli K-12) (UniProt P0A884); experiment: Binding affinity to Escherichia coli N-terminal hexahistidine tagged TS assessed as change in entropy at 0.2 mM by isothermal titration calorimetry method
Klebsiella pneumoniae [32] = experiment: Bactericidal activity against Klebsiella pneumoniae CCPM(A)-081514 at 0.5 ug/ml measured for 24 hrs in presence of SMZ by time-kill assay; assay type: functional, organism-based; settings: dose 0.5 µg/ml
Klebsiella pneumoniae [33] = experiment: Synergistic antibacterial activity against Klebsiella pneumoniae CCPM(A)-081514 assessed as fractional inhibitory concentration index at 0.5 ug/ml measured for 24 hrs in presence of SMZ by microdilution checkerboard assay; assay type: functional; settings: dose 0.5 µg/ml
Escherichia coli [34] = experiment: Bactericidal activity against Escherichia coli ATCC 25922 at 30 pg/ml measured for 24 hrs in presence of SMZ by time-kill assay; assay type: functional, organism-based
Escherichia coli [35] = experiment: In vivo Antibacterial activity against Escherichia coli ATCC 25922 in septicemia ICR mouse model assessed as increase in mouse survival rate administered iv measured […]; assay type: functional, organism-based; settings: dose 7.5-15 mg/kg, DDE = dose-dependent effect
Escherichia coli [36] = experiment: In vivo Antibacterial activity against Escherichia coli ATCC 25922 in septicemia ICR mouse model assessed as increase in mouse survival time administered iv measured after 14 hrs; assay type: functional, organism-based; settings: dose 7.5-15 mg/kg, DDE = dose-dependent effect
Escherichia coli [37] = experiment: Bactericidal activity against Escherichia coli ATCC 25922 assessed as suppression of regrowth of colonies at 4 to 8 times MIC measured for 24 hrs by time-kill assay; assay type: functional, organism-based
Escherichia coli [38] = experiment: Bactericidal activity against Escherichia coli ATCC 25922 assessed as reductions in colony forming unit at 8 times MIC measured for 24 hrs by time-kill assay; assay type: functional
Escherichia coli [39] = experiment: Bactericidal activity against Escherichia coli ATCC 25922 at 0.5 to 8 times MIC by counting bacterial colonies time-kill assay; assay type: functional, organism-based; settings: time <= 24.0 hrs, TDE = time-dependent effect
Escherichia coli [40] = experiment: In vivo Antibacterial activity against Escherichia coli ATCC 25922 in septicemia ICR mouse model assessed as increase in mouse survival time at 15 mg/kg,iv measured after 14 hrs; assay type: functional
Escherichia coli [41] = experiment: Bactericidal activity against Escherichia coli ATCC 25922 at 0.5 to 8 times MIC by counting bacterial colonies upto 24 hrs time-kill assay; assay type: functional, organism-based; settings: DDE = dose-dependent effect
Escherichia coli [42] = experiment: Synergistic antibacterial activity against Escherichia coli ATCC 25922 assessed as fractional inhibitory concentration index at 30 pg/ml measured for 24 hrs in presence of SMZ by microdilution checkerboard assay; assay type: functional
[43] = molecular target: Thymidylate synthase (Escherichia coli K-12) (UniProt P0A884); experiment: Binding affinity to Escherichia coli N-terminal hexahistidine tagged TS assessed as change in gibbs free energy at 0.2 mM by isothermal titration calorimetry method
Escherichia coli [44] = experiment: Potency index ratio of IC50 for TMP to IC50 for test compound for inhibition of Escherichia coli C-terminal hexahistidine tagged DHFR
Escherichia coli [45] = experiment: In vivo Antibacterial activity against Escherichia coli ATCC 25922 in septicemia ICR mouse model assessed as reduction in bacterial load at 50 mg/kg, iv measured after 2 to 4 hrs; assay type: functional; settings: time 2-4 hrs

Thymidylate synthase (Escherichia coli K-12), sequence (P0A884 whole entry, looked up): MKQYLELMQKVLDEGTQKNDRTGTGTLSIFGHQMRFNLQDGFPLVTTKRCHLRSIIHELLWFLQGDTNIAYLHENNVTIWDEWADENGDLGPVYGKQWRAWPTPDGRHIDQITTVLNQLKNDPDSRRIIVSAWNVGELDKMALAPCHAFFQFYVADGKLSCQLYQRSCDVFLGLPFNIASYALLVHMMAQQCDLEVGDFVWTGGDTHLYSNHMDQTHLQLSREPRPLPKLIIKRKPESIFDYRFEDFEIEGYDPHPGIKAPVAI
Thymidylate synthase, sequence (P0A884 whole entry): as the sequence (P0A884 whole entry, looked up) above

In the case of `Nc1nc(N)c2c(ccc3c2ccn3Cc2cccs2)n1`, the MIC (Acinetobacter baumannii [1]) is reported as 8 µg/mL, the MIC (Acinetobacter baumannii [2]) is reported as 8 µg/mL and the MIC (Escherichia coli [3]) is reported as 0.002 µg/mL. The MIC (Escherichia coli [4]) was 16 µg/mL, the MIC (Klebsiella pneumoniae [5]) was 1 µg/mL and the MIC (Klebsiella pneumoniae [6]) was 0.06 µg/mL. The IC50 [7] was 15.9 nM, the deltaH (Escherichia coli [8]) was -18.5 kcal/mol and the deltaS (Escherichia coli [9]) was -24.1 cal/mol/deg. The MIC (Acinetobacter baumannii [10]) was 0.5 µg/mL, the Kd [11] was 4.85 nM and the MIC (Klebsiella pneumoniae [12]) was at most 0.25 µg/mL. For the same compound, the MIC (Enterococcus faecium) was 0.03 µg/mL, the MIC (Escherichia coli [13]) was 16 µg/mL and the MIC (Acinetobacter baumannii [14]) was 0.25 µg/mL. It also gave an MIC (Acinetobacter baumannii [15]) of 8 µg/mL, an MIC (Klebsiella pneumoniae [16]) of 16 µg/mL and an inhibition (Escherichia coli [17]) of 92.8%. For the same compound, the Activity [18] was “Active”, the MIC (Staphylococcus aureus [19]) was 0.03 µg/mL and the MIC (Klebsiella pneumoniae [20]) was 0.002 µg/mL. For the same compound, the MIC (Escherichia coli [21]) was 0.002 µg/mL, the MIC (Escherichia coli [22]) was 8 µg/mL and the MIC (Escherichia coli [23]) was 0.002 µg/mL. For the same compound, the MIC (Escherichia coli [24]) was 0.002 µg/mL, the IC50 (Thymidylate synthase) was 11400 nM and the “fold change (FC)” value (Escherichia coli [25]) was 4000. For the same compound, the inhibition [26] was 50%, the MIC (Acinetobacter baumannii [27]) was 1 µg/mL and the deltaG (Escherichia coli [28]) was -11.3 kcal/mol. The “fold change (FC)” value (Escherichia coli [29]) was 8000 and the MIC (Staphylococcus aureus [30]) was 0.25 µg/mL.

With `Nc1nc(N)c2c(ccc3c2ccn3Cc2ccccc2F)n1` the TdeltaS [31] was -20.9 kcal/mol, the Activity (Klebsiella pneumoniae [32]) was “Active” and the MIC (Acinetobacter baumannii [1]) was 8 µg/mL. The MIC (Acinetobacter baumannii [2]) was 8 µg/mL, the “fractional inhibitory concentration index (FICI)” value (Klebsiella pneumoniae [33]) was 0.07 and the Activity (Escherichia coli [34]) was “Active”. For the same compound, the MIC (Escherichia coli [3]) was 0.002 µg/mL, the Activity (Escherichia coli [35]) was “Dde” and the MIC (Escherichia coli [4]) was 16 µg/mL. For the same compound, the Activity (Escherichia coli [36]) was “Dde”, the MIC (Klebsiella pneumoniae [5]) was 1 µg/mL and the MIC (Klebsiella pneumoniae [6]) was 2 µg/mL. For the same compound, the IC50 [7] was 2.36 nM, the deltaH (Escherichia coli [8]) was -20.4 kcal/mol and the TdeltaS (Escherichia coli [9]) was -19.4 kcal/mol. It also gave an MIC (Acinetobacter baumannii [10]) of 0.125 µg/mL, a Kd [11] of 1.57 nM and an MIC (Klebsiella pneumoniae [12]) of 1 µg/mL. The Activity (Escherichia coli [37]) was “Active”, the Activity (Escherichia coli [38]) was 3 log10CFU/ml and the MIC (Enterococcus faecium) was 0.03 µg/mL. The MIC (Escherichia coli [13]) was 8 µg/mL, the Activity (Escherichia coli [39]) was “Tde” and the MIC (Acinetobacter baumannii [14]) was 0.03 µg/mL. The MIC (Acinetobacter baumannii [15]) was 0.06 µg/mL, the MIC (Klebsiella pneumoniae [16]) was 16 µg/mL and the inhibition (Escherichia coli [17]) was 76.2%. The Activity [18] was “Active”, the MIC (Staphylococcus aureus [19]) was 0.03 µg/mL and the MIC (Klebsiella pneumoniae [20]) was 0.03 µg/mL. For the same compound, the MIC (Escherichia coli [21]) was 0.002 µg/mL, the MIC (Escherichia coli [22]) was 8 µg/mL and the Activity (Escherichia coli [40]) was 50%. The MIC (Escherichia coli [23]) was 0.06 µg/mL, the MIC (Escherichia coli [24]) was 0.002 µg/mL and the Activity (Escherichia coli [41]) was “Dde”. For the same compound, the “fractional inhibitory concentration index (FICI)” value (Escherichia coli [42]) was 0.02, the IC50 (Thymidylate synthase) was 11200 nM and the inhibition [26] was 50%. The MIC (Acinetobacter baumannii [27]) was 1 µg/mL, the deltaG (Escherichia coli [28]) was -9.14 kcal/mol and the “fold change (FC)” value (Escherichia coli [29]) was 4000. The deltaG [43] was -5.82 kcal/mol, the Ratio IC50 (Escherichia coli [44]) was 20 and the MIC (Staphylococcus aureus [30]) was 0.5 µg/mL. The Activity (Escherichia coli [45]) was 100 CFU/ml.
